The values below come from patent publication US20190029928A1, “Fibrous Structures Comprising Malodor Reduction Compositions” (The Procter & Gamble Company, priority 2017, published 2019).

The structures appear in SMILES notation. “And” between values parts separate entries of the source, which are not always exact repeats. Equal entries are not always repeated. Where two headings read alike, the source gives them in different places.

Source text: The first step in the method for assigning a BI to a test sample material on the BI reference scale is to create the BI reference swatches. […] Fabric swatches for this test are white knit polycotton (4 inch×4 inch) swatches from EMC ordered as PC 50/50. The supplier is instructed to strip the swatches first, stripping involves washing twice with a fragrance-free detergent and rinsing three times.
Making the BI Reference Swatches
The BI scale contains one clean swatch with no malodor applied. […] These solutions are pipetted to the middle of the swatches. […] After drying for 30 minutes in a vented hood, the swatches are wrapped in aluminum foil to prevent odor contamination to the treated swatch. A clean untreated swatch is also included as the lowest anchor point of reference for malodor strength on the BI scale. The BI reference scale swatches should be used within 0.5 to 12 hours and discarded after 12 hours. The swatches are used as scale anchor points when graders evaluate a test sample(s) and are assigned a Blocker Index (BI) as show in Table 11 below.
The perfumer/expert grader is asked to rank order swatches according to a scale between 0 and 3.

For the compound `CC(C)CC(=O)O` [isovaleric acid], the “BI rank Ave” value (2 μL 0.08% isovaleric acid, all graders (Table 11)) turned out to be 1.0. Moreover, the “BI rank by individual expert grader” value was 0.5 and 2.0 and 1.0 (stripped swatch with 2 μL 0.08% isovaleric acid); 2.0 and 2.5 (stripped swatch with 5 μL 0.08% isovaleric acid); 3.0 and 2.5 (stripped swatch with 20 μL 0.08% isovaleric acid).
